Where a name gives a salt, the structure may show the parent alone.
Experiments:
[1] = target: CDK6/cyclin D3 (Homo sapiens, UniProt Q00534); test: CDK6 inhibition, Kinase-Glo Luminescent Kinase Assay; format: biochemical; details: for selectivity for CDK2 over CDK6: ratio of IC50 values
Experimental: (§1) Experiments were carried out using the Kinase-Glo® Luminescent Kinase Assays as described previously ([Kashem et al., 2007]). Briefly, all enzymatic reactions were conducted at 30°C for 40 min. The 50 µl reaction mixture contains 40 mM Tris, pH 7.4, 10 mM MgCl2, 0.1 mg/ml BSA, 1 mM DTT, 10 µM ATP, 0.2 μg/ml CDKs, and 100 μM lipid substrate. The compounds were diluted with 10% DMSO and then 5 µl of the dilution was removed and put into the subsequent reaction. The kinase activities were measured by detecting the content of remaining ATP. The luminescent signal was correlated with the amount of residual ATP and negatively correlated with the amount of kinase activity. The IC50 values were calculated using Prism GraphPad software.

[2] = test system: MDA-MB-231 cells; test: Cell cycle analysis (PI staining, flow cytometry); format: cell-based, human; details: 20 μM, 24 h, compared with negative control group
Experimental: MDA-MB-231 cells were seeded in six-well plates and incubated with 20 μM compounds 11c, 11l, 11p, and vehicle (0.2% DMSO) for 24 h. Subsequently, cells were centrifugated and washed with cold PBS buffer. After the centrifugation, the supernatants were removed, and the cells were resuspended in PBS buffer. Then, 10 μl of PI were added and the cells were incubated in the dark for 15 min at room temperature. The stained cells were analyzed by a flow cytometer (BD Accuri C6).

[3] = target: CDK1/cyclin B (Homo sapiens, UniProt P06493); test: CDK1 inhibition, Kinase-Glo Luminescent Kinase Assay; format: biochemical; details: for selectivity for CDK2 over CDK1: ratio of IC50 values
CDK1/cyclin B, sequence (P06493 whole entry): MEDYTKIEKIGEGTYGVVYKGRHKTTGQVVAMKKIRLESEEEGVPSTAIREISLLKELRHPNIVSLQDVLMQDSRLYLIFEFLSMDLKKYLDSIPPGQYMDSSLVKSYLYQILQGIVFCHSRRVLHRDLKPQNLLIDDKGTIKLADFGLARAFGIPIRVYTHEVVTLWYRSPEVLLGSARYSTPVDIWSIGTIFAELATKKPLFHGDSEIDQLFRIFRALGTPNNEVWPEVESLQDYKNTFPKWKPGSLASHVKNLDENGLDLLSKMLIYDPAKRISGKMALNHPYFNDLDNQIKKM
CDK1/cyclin B, sequence (P14635 whole entry partner): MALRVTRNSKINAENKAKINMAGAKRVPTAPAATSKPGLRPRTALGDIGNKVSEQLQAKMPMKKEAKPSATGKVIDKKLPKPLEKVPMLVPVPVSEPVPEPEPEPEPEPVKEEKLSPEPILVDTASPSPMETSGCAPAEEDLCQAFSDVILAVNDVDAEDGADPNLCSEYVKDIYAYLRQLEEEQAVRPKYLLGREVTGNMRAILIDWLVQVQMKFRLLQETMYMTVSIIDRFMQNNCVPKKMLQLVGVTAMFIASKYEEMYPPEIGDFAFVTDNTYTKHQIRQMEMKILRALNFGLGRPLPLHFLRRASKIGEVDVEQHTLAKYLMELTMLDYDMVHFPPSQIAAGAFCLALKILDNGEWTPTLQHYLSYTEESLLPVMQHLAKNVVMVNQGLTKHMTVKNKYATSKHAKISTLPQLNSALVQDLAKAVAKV
Experimental: as §1

[4] = test system: MDA-MB-231 cells; test: Anti-proliferation test (MTT); format: cell-based; details: Homo sapiens, 48 h
Experimental: Standard MTT (thiazolyl blue; 3-[4,5-dimethylthiazol-2-yl]-2,5-diphenyltetrazolium bromide) assays were performed as 5 mg/ml. Briefly, MDA-MB-231 or 293T cells were seeded into 96-well plates and incubated for 24 h at 37°C. All compounds were dissolved in DMSO, and a gradient dilution series were prepared in 100 μl of cell medium, added to cells (in triplicates), and incubated for 48 h at 37°C with 5% CO2. MTT was added (5 mg/ml, 20 μl) to each plate and these mixtures were incubated for another 4 h. Then, the medium was removed, and the mixture was completely dissolved in DMSO (200 μL) after shaking for 10 min.

[5] = target: CDK8/cyclin C (Homo sapiens, UniProt P49336); test: CDK8 inhibition, Kinase-Glo Luminescent Kinase Assay; format: biochemical; details: for selectivity for CDK2 over CDK8: CDK8 inhibition <20% @ 5 μM; for CDK8/cyclin C Inhibition rate @5 μM (%) / inhibition at 5 µM: compound at 5 μM; for inhibition at 5 µM: read-out: CDK8/cyclin C Inhibition rate @5 μM (%)
CDK8/cyclin C, sequence (P49336 whole entry): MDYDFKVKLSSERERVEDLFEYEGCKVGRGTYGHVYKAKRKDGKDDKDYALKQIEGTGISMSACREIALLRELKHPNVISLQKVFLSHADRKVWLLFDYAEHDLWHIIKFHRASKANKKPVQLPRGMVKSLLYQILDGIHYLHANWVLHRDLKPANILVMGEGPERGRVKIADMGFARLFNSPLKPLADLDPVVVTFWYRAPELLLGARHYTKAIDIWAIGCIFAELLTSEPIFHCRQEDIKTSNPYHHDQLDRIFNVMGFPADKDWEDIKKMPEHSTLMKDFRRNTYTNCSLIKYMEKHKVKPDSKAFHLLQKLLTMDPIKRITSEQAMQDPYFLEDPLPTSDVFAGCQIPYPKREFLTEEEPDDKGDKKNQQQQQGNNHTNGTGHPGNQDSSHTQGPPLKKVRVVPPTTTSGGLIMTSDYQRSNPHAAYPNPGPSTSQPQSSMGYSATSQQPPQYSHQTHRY
CDK8/cyclin C, sequence (P24863 whole entry partner): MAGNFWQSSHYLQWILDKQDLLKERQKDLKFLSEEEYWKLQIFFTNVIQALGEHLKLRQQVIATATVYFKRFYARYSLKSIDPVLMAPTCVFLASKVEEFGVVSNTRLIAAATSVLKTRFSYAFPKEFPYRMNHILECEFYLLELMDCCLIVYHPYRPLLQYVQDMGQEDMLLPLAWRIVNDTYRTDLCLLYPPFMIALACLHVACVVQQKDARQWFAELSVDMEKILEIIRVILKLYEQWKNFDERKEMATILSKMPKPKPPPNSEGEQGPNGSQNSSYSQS
Experimental: as §1

[6] = target: CDK2/cyclin A (Homo sapiens, UniProt P24941); test: CDK2 inhibition, Kinase-Glo Luminescent Kinase Assay; format: biochemical; details: for IC50: geometric means of n ⩾ 3 experiments, 10 µM ATP, read-out: IC50 against CDK2; for inhibition at 0.5 µM: read-out: inhibition rate (%) @0.5 μM against CDK2, compound at 0.5 μM; for CDK2 inhibitory activity (in words): screened at 0.5 μM
Experimental: The IC50 values were calculated using Prism GraphPad software.

[7] = test system: CDK2/A; details: ref Coxon et al., 2017; cited from earlier work
[8] = test system: CDK1/B; details: ref Coxon et al., 2017; cited from earlier work

CDK6/cyclin D3, sequence (Q00534 whole entry): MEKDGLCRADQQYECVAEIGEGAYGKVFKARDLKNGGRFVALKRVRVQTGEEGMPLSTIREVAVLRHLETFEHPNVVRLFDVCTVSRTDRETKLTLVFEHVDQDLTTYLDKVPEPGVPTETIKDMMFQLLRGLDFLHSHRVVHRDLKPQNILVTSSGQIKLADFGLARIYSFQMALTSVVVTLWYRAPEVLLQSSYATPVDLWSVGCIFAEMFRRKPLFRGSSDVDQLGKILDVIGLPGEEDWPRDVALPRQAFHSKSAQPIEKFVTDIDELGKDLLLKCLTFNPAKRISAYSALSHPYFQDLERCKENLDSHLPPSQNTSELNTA
CDK6/cyclin D3, sequence (P30281 whole entry partner): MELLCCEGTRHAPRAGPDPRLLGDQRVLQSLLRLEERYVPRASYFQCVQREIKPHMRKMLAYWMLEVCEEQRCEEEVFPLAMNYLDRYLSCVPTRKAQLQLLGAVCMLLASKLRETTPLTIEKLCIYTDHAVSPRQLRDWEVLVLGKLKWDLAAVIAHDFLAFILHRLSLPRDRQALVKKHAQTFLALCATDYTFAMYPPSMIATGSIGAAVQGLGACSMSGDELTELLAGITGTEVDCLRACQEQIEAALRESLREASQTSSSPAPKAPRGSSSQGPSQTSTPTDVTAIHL

Row | Compound | melting point | IC50 [6] | inhibition at 0.5 µM [6] | also measured
1 | O=[N+]([O-])c1cccc(Nc2nc(-c3ccc4c(c3)OCO4)c3nc[nH]c3n2)c1 [Compound 5d, 6-(benzo[d][1,3]dioxol-5-yl)-N-(3-nitrophenyl)-9H-purin-2-amine] | 260 °C (dec.) |  | 7% | CDK2 inhibitory activity (in words) [6]: weak activity
2 | COC(=O)c1cccc(-c2nc(Nc3cccc([N+](=O)[O-])c3)nc3[nH]cnc23)c1 [Compound 5h, Methyl 3-(2-((3-nitrophenyl)amino)-9H-purin-6-yl)benzoate] | 257 °C |  | 11% | CDK2 inhibitory activity (in words) [6]: abolished CDK2 inhibitory activity
3 | O=C(O)c1cccc(-c2nc(Nc3cccc([N+](=O)[O-])c3)nc3[nH]cnc23)c1 [Compound 5g, 3-(2-((3-nitrophenyl)amino)-9H-purin-6-yl)benzoic acid] |  | 150 ± 10 nM |  | 
4 | COC(=O)c1ccc(-c2nc(Nc3cccc([N+](=O)[O-])c3)nc3[nH]cnc23)cc1 [Compound 5k, Methyl 4-(2-((3-nitrophenyl)amino)-9H-purin-6-yl)benzoate] | 212 to 214 °C |  | 3% | CDK2 inhibitory activity (in words) [6]: abolished CDK2 inhibitory activity
5 | O=[N+]([O-])c1cccc(Nc2nc(-c3cccc4ccccc34)c3nc[nH]c3n2)c1 [Compound 5b, 6-(naphthalen-1-yl)-N-(3-nitrophenyl)-9H-purin-2-amine] | > 300 °C |  | 3% | CDK2 inhibitory activity (in words) [6]: weak activity
6 | O=[N+]([O-])c1cccc(Nc2nc(-c3ccsc3)c3nc[nH]c3n2)c1 [Compound 5e, N-(3-nitrophenyl)-6-(thiophen-3-yl)-9H-purin-2-amine] | > 280 °C |  |  | CDK2 inhibitory activity (in words) [6]: inactive
7 | O=[N+]([O-])c1cccc(Nc2nc(-c3ccccc3)c3nc[nH]c3n2)c1 [Compound 5a, N-(3-nitrophenyl)-6-phenyl-9H-purin-2-amine] |  | 310 ± 10 nM |  | 
8 | 6-(3-(aminomethyl)phenyl)-N-(4-(piperazin-1-yl)phenyl)-9H-purin-2-amine dihydrochloride [Compound 11r] |  | 190 ± 10 nM |  | 
9 | O=[N+]([O-])c1cccc(Nc2nc(-c3ccc(F)cc3)c3nc[nH]c3n2)c1 [Compound 5i, 6-(4-fluorophenyl)-N-(3-nitrophenyl)-9H-purin-2-amine] |  |  |  | CDK2 inhibitory activity (in words) [6]: abolished CDK2 inhibitory activity
10 | O=[N+]([O-])c1cccc(Nc2nc(-c3cccc([N+](=O)[O-])c3)c3nc[nH]c3n2)c1 [Compound 5f, N,6-bis(3-nitrophenyl)-9H-purin-2-amine] | > 300 °C |  |  | CDK2 inhibitory activity (in words) [6]: abolished CDK2 inhibitory activity
11 | O=C(O)c1ccc(-c2nc(Nc3cccc([N+](=O)[O-])c3)nc3[nH]cnc23)cc1 [Compound 5j, 4-(2-((3-nitrophenyl)amino)-9H-purin-6-yl)benzoic acid] | > 300 °C |  | 7% | CDK2 inhibitory activity (in words) [6]: low activity
12 | NS(=O)(=O)c1ccc(Nc2nc(-c3cccc(-c4ccccc4)c3)c3nc[nH]c3n2)cc1 [compound 73, reference compound] |  |  |  | IC50 [7]: 44 nM; IC50 [8]: 86000 nM
13 | Cl.O=[N+]([O-])c1cccc(Nc2nc(-c3ccc[nH]3)c3nc[nH]c3n2)c1 [Compound 5c, N-(3-nitrophenyl)-6-(1H-pyrrol-2-yl)-9H-purin-2-amine hydrochloride] | 236 °C (dec.) |  | 37% | 

Now from value to compound, other results behind:

Row | melting point | IC50 [6] | inhibition at 0.5 µM [6] | Compound | also measured
14 | 236 to 238 °C | 110 ± 10 nM |  | Cl.NCc1cccc(-c2nc(Nc3cccc([N+](=O)[O-])c3)nc3[nH]cnc23)c1 [Compound 11c, 6-(3-(aminomethyl)phenyl)-N-(3-nitrophenyl)-9H-purin-2-amine hydrochloride] | IC50 [1]: 2200 ± 100 nM; selectivity for CDK2 over CDK6 [1]: 18 fold; effect on cell cycle (percentage of cells in G2/M phase) [2]: increased the percentage of cells in the G2/M phase; IC50 [3]: 240 ± 40 nM; selectivity for CDK2 over CDK1 [3]: 2 fold; IC50 [4]: 8110 to 15700 nM; selectivity for CDK2 over CDK8 [5]: more than 42 fold; CDK8/cyclin C Inhibition rate @5 μM (%) [5]: 19%; inhibition at 5 µM [5]: < 20%
15 |  | 240 ± 10 nM |  | NCc1ccc(-c2nc(Nc3ccc(F)cc3)nc3[nH]cnc23)cc1 [Compound 11o, 6-(4-(aminomethyl)phenyl)-N-(4-fluorophenyl)-9H-purin-2-amine hydrochloride] | 
16 | > 300 °C | 180 ± 20 nM |  | CN(C)S(=O)(=O)c1ccc(Nc2nc(-c3cccc(CN)c3)c3nc[nH]c3n2)cc1.Cl [Compound 11q, 4-((6-(3-(aminomethyl)phenyl)-9H-purin-2-yl)amino)-N,N-dimethylbenzene sulfonamide hydrochloride] | 
17 | > 300 °C |  | 33% | Cl.Cl.NCc1cccc(-c2nc(Nc3cccc(N)c3)nc3[nH]cnc23)c1 [Compound 11m, N ^ 1-(6-(3-(aminomethyl)phenyl)-9H-purin-2-yl)benzene-1,3-diamine dihydrochloride] | 
18 | > 300 °C | 230 ± 10 nM |  | Cl.NCc1ccc(-c2nc(Nc3cccc([N+](=O)[O-])c3)nc3[nH]cnc23)cc1 [Compound 11d, 6-(4-(aminomethyl)phenyl)-N-(3-nitrophenyl)-9H-purin-2-amine hydrochloride] | 
19 | > 230 °C |  | 35% | Cl.NCCc1cccc(-c2nc(Nc3cccc([N+](=O)[O-])c3)nc3[nH]cnc23)c1 [Compound 11e, 6-(3-(2-aminoethyl)phenyl)-N-(3-nitrophenyl)-9H-purin-2-amine hydrochloride] | 
20 | > 300 °C |  | 26% | Cl.NCc1cccc(-c2nc(Nc3ccc(N4CCNCC4)cc3)nc3[nH]cnc23)c1 [Compound 11k, 6-(3-(aminomethyl)phenyl)-N-(4-(piperazin-1-yl)phenyl)-9H-purin-2-amine hydrochloride] | 
21 | 210 °C (dec.) |  | 13% | Cl.NCc1cccc(-c2nc(Nc3ccc(-c4ccccc4)cc3)nc3[nH]cnc23)c1 [Compound 11h, N-([1,1′-biphenyl]-4-yl)-6-(3-(aminomethyl)phenyl)-9H-purin-2-amine hydrochloride] | 
22 | > 300 °C | 280 ± 20 nM |  | Cc1ccc(Nc2nc(-c3cccc(CN)c3)c3nc[nH]c3n2)cc1.Cl [Compound 11i, 6-(3-(aminomethyl)phenyl)-N-(p-tolyl)-9H-purin-2-amine hydrochloride] | 
23 | 203 to 205 °C |  | 35% | Cl.NCc1cccc(-c2nc(Nc3ccccc3)nc3[nH]cnc23)c1 [Compound 11f, 6-(3-(aminomethyl)phenyl)-N-phenyl-9H-purin-2-amine hydrochloride] | 
24 | > 300 °C | 32 ± 1 nM |  | CNS(=O)(=O)c1ccc(Nc2nc(-c3cccc(CN)c3)c3nc[nH]c3n2)cc1.Cl [Compound 11p, 4-((6-(3-(aminomethyl)phenyl)-9H-purin-2-yl)amino)-N-methylbenzenesulfonamide hydrochloride] | IC50 [1]: 4800 ± 100 nM; selectivity for CDK2 over CDK6 [1]: more than 140 fold; effect on cell cycle (percentage of cells in G2/M phase) [2]: increased the percentage of cells in the G2/M phase; IC50 [3]: 150 ± 20 nM; selectivity for CDK2 over CDK1 [3]: 4.6 to 6.3 fold; IC50 [4]: 8110 to 15700 nM; selectivity for CDK2 over CDK8 [5]: more than 140 fold; CDK8/cyclin C Inhibition rate @5 μM (%) [5]: 15%; inhibition at 5 µM [5]: < 20%
25 | > 300 °C | 320 ± 60 nM |  | Cl.NCc1cccc(-c2nc(Nc3ccc(F)cc3)nc3[nH]cnc23)c1 [Compound 11n, 6-(3-(aminomethyl)phenyl)-N-(4-fluorophenyl)-9H-purin-2-amine hydrochloride] | 
26 | > 300 °C |  | 40% | Cl.Nc1ccc(-c2nc(Nc3cccc([N+](=O)[O-])c3)nc3[nH]cnc23)cc1 [Compound 11b, 6-(4-aminophenyl)-N-(3-nitrophenyl)-9H-purin-2-amine hydrochloride] | 
27 | 200 to 202 °C | 130 ± 20 nM |  | Cl.NCc1ccc(-c2nc(Nc3ccccc3)nc3[nH]cnc23)cc1 [Compound 11g, 6-(4-(aminomethyl)phenyl)-N-phenyl-9H-purin-2-amine hydrochloride] | 
28 |  |  | 28% | CC(C)(C)c1ccc(Nc2nc(-c3cccc(CN)c3)c3nc[nH]c3n2)cc1 [Compound 11j, 6-(3-(aminomethyl)phenyl)-N-(4-(tert-butyl)phenyl)-9H-purin-2-amine hydrochloride] | 

Reference: article PMC9110766, “Structure-Based Design of 2-Aminopurine Derivatives as CDK2 Inhibitors for Triple-Negative Breast Cancer” (Frontiers in Pharmacology, 2022)
